Assay results: paper PMC4503722, “Novel Phenotypic Outcomes Identified for a Public Collection of Approved Drugs from a Publicly Accessible Panel of Assays” (PLoS ONE, 2015)
pEC50, pIC50: −log10 of the molar value. Where two headings read alike, the source gives them in different places.

What was measured:
Experiment in all cases: cells
[1] = test system: HT-29; type: cell-based
[2] = test system: Colo320; type: cell-based
[3] = test system: DLD-1; type: cell-based
[4] = test system: RKO; type: cell-based
[5] = test system: SW480; type: cell-based
[6] = test system: HCT116; type: cell-based
[7] = test system: NCI-H716 cells; type: cell-based, Human
[8] = test system: SNU-C1; type: cell-based
[9] = test system: endothelial tube formation in co-cultures of ECFCs and ADSCs treated with VEGF; type: cell-based, human
[10] = test system: INS-1E cells; type: cell-based, rat
[11] = test system: HeLa cells; type: cell-based; settings: read-out: CellCycle G2/M
[12] = test system: HCT116 cells treated with a GSK3β inhibitor; type: cell-based
[13] = test system: nuclear β-catenin in C2C12 cells; type: cell-based
[14] = basal, read-out: Basal_Viability ATP HT-29
[15] = basal, read-out: Basal_Viability ATP Colo 320
[16] = basal, read-out: Basal_Viability ATP DLD-1
[17] = basal, read-out: Basal_Viability ATP RKO
[18] = basal, read-out: Basal_Viability ATP SW480
[19] = basal, read-out: Basal_Viability ATP HCT116
[20] = IC50 / EC50, NCI-H716, read-out: GLP 1 Secretion
[21] = basal, read-out: Basal_Viability ATP SNU-C1
[22] = IC50 / EC50; endothelial tube area, ADSC/ECFC co-culture; read-out: Anti-Angiogenesis
[23] = IC50 / EC50, INS-1E, read-out: Insulin Secretion
[24] = GSK3b inhibitor pretreated, read-out: GSK3b inh pretreated_Viability ATP HCT116
[25] = IC50 / EC50, C2C12 beta-catenin translocation, read-out: Wnt Pathway
[26] = read-out: Basal_Viability ATP HT-29
[27] = read-out: Basal_Viability ATP Colo 320
[28] = read-out: Basal_Viability ATP DLD-1
[29] = read-out: Basal_Viability ATP RKO
[30] = read-out: Basal_Viability ATP SW480
[31] = read-out: Basal_Viability ATP HCT116
[32] = read-out: Basal_Viability ATP SNU-C1
[33] = read-out: GSK3b inh pretreated_Viability ATP HCT116
[34] = Homo sapiens, HT-29, read-out: Basal_Viability ATP HT-29
[35] = Homo sapiens, basal, HT-29, read-out: Basal_Viability ATP HT-29
[36] = Homo sapiens, basal, Colo 320, read-out: Basal_Viability ATP Colo 320
[37] = Homo sapiens, DLD-1, basal, DLD-1, read-out: Basal_Viability ATP DLD-1
[38] = Homo sapiens, basal, RKO, read-out: Basal_Viability ATP RKO
[39] = Homo sapiens, SW480, basal, SW480, read-out: Basal_Viability ATP SW480
[40] = Homo sapiens, HCT-116, basal, HCT116, read-out: Basal_Viability ATP HCT116
[41] = Homo sapiens, NCI-H716, read-out: GLP 1 Secretion
[42] = Homo sapiens, SNU-C1, basal, SNU-C1, read-out: Basal_Viability ATP SNU-C1
[43] = Homo sapiens; read-out: Anti-Angiogenesis
[44] = Rattus norvegicus, INS-1E, read-out: Insulin Secretion
[45] = Homo sapiens, HeLa, S2 Table, HeLa, 20 = no response at highest concentration
[46] = Homo sapiens, HCT-116, HCT116 pretreated with GSK3b inhibitor, read-out: GSK3b inh pretreated_Viability ATP HCT116
[47] = Mus musculus, C2C12, S2 Table, module primary assay, 20 / 20.1 codes per legend, read-out: Wnt Pathway
[48] = basal, HT-29, read-out: Basal_Viability ATP HT-29
[49] = basal, Colo 320, read-out: Basal_Viability ATP Colo 320
[50] = basal, DLD-1, read-out: Basal_Viability ATP DLD-1
[51] = basal, RKO, read-out: Basal_Viability ATP RKO
[52] = basal, SW480, read-out: Basal_Viability ATP SW480
[53] = basal, HCT116, read-out: Basal_Viability ATP HCT116
[54] = S2 Table, module primary assay, 20 / 20.1 codes per legend, read-out: GLP 1 Secretion
[55] = basal, SNU-C1, read-out: Basal_Viability ATP SNU-C1
[56] = S2 Table, module primary assay, 20 / 20.1 codes per legend, read-out: Insulin Secretion
[57] = S2 Table, HeLa, 20 = no response at highest concentration
[58] = HCT116 pretreated with GSK3b inhibitor, read-out: GSK3b inh pretreated_Viability ATP HCT116
[59] = S2 Table, module primary assay, 20 / 20.1 codes per legend, read-out: Wnt Pathway

## O=C(c1cc(O)c(O)c(O)c1)c1ccc(O)c(O)c1O [Hexahydro-2,3,4,3',4',5'-benzophenone]
[1]; [14]
  pIC50: 5.02
[2]; [15]
  pIC50: 5.03
[3]; [16]
  pIC50: 4.92
[4]; [17]
  pIC50: 6.72
[5]; [18]
  pIC50: 5.00
[6]; [19]
  pIC50: 4.79
[7]; [20]
  pEC50: < 5.00
[8]; [21]
  pIC50: 4.89
[9]; [22]
  pIC50: < 5.00
[10]; [23]
  pEC50: < 5.00
[11]; IC50 / EC50, HeLa
  pEC50: < 5.00
[12]; [24]
  pIC50: 7.16
[13]; [25]
  pEC50: < 5.00

## CCN1C(=CC=Cc2sc3ccccc3[n+]2CC)Sc2ccccc21 [3,3'-diethylthiacarbocyanine iodide]
[1]; [26]
  pIC50: 8.08
[2]; [27]
  pIC50: 6.25
[3]; [28]
  pIC50: 7.83
[4]; [29]
  pIC50: 8.05
[5]; [30]
  pIC50: 6.76
[6]; [31]
  pIC50: 8.02
[7]; read-out: GLP 1 Secretion
  pEC50: < 5.00
[8]; [32]
  pIC50: 7.76
[9]; read-out: Anti-Angiogenesis
  pIC50: < 5.00
[10]; read-out: Insulin Secretion
  pEC50: < 5.00
[11]
  pEC50: < 5.00
[12]; [33]
  pIC50: 8.06
[13]; read-out: Wnt Pathway
  pEC50: < 5.00

## O=C(NOCC1CC1)c1ccc(F)c(F)c1Nc1ccc(I)cc1Cl [PD-184352, reference compound]
[1]; Homo sapiens, HT-29, 72 h, read-out: HT-29 viab. IC50
  pIC50: 7.59
[1]; [34]
  pIC50: 7.58
[2]; Homo sapiens, COLO 320, 72 h, read-out: Colo320 viab. IC50
  pIC50: 6.07
[2]; Homo sapiens, COLO 320, read-out: Basal_Viability ATP Colo 320
  pIC50: 6.07
[3]; Homo sapiens, DLD-1, 72 h, read-out: DLD-1 viab. IC50
  pIC50: 5.66
[3]; Homo sapiens, DLD-1, read-out: Basal_Viability ATP DLD-1
  pIC50: 5.67
[4]; Homo sapiens, RKO, 72 h, read-out: RKO viab. IC50
  pIC50: 8.52
[4]; Homo sapiens, RKO, read-out: Basal_Viability ATP RKO
  pIC50: 8.50
[5]; Homo sapiens, SW480, 72 h, read-out: SW480 viab. IC50
  pIC50: 8.30
[5]; Homo sapiens, SW480, read-out: Basal_Viability ATP SW480
  pIC50: 8.31
[6]; Homo sapiens, HCT-116, 72 h, read-out: HCT-116 viab. IC50
  pIC50: 8.70
[6]; Homo sapiens, HCT-116, read-out: Basal_Viability ATP HCT116
  pIC50: 8.75
[7]; Homo sapiens, NCI-H716, read-out: GLP1 sec. EC50
  pEC50: < 5.00
[8]; Homo sapiens, SNU-C1, 72 h, read-out: SNU-C1 viab. IC50
  pIC50: 7.77
[8]; Homo sapiens, SNU-C1, read-out: Basal_Viability ATP SNU-C1
  pIC50: 7.77
[9]; Homo sapiens, read-out: Anti-Angio IC50
  pIC50: 6.43
[9]; Homo sapiens, read-out: Anti-Angiogenesis
  pIC50: 6.43
[10]; Rattus norvegicus, INS-1E, read-out: Ins. sec. EC50
  pEC50: < 5.00
[11]; Homo sapiens, HeLa
  pEC50: < 5.00
[12]; Homo sapiens, HCT-116, 72 h, read-out: HCT-116 (GSK3β) viab. IC50
  pIC50: 6.01
[12]; Homo sapiens, HCT-116, read-out: GSK3b inh pretreated_Viability ATP HCT116
  pIC50: 6.01
[13]; Mus musculus, C2C12, read-out: Wnt pot. EC50
  pEC50: < 5.00

## CCc1oc2ccccc2c1C(=O)c1cc(Br)c(O)c(Br)c1 [Benzbromarone]
[1]; [35]
  pIC50: 5.94
[2]; [36]
  pIC50: < 4.70
[3]; [37]
  pIC50: 6.57
[4]; [38]
  pIC50: 6.88
[5]; [39]
  pIC50: 5.76
[6]; [40]
  pIC50: 5.98
[7]; [41]
  pEC50: < 4.70
[8]; [42]
  pIC50: 6.98
[9]; [43]
  pIC50: < 5.00
[10]; [44]
  pEC50: < 5.00
[11]; [45]
  pEC50: < 5.00
[12]; [46]
  pIC50: 7.18
[13]; [47]
  pEC50: < 5.00

## O=[N+]([O-])c1ccc(Oc2ccc(N=C=S)cc2)cc1 [Cantrodifene]
[1]; [14]
  pIC50: 5.97
[2]; [15]
  pIC50: 5.83
[3]; [16]
  pIC50: 5.68
[4]; [17]
  pIC50: 5.63
[5]; [18]
  pIC50: 5.79
[6]; [19]
  pIC50: 5.56
[7]; [20]
  pEC50: < 5.00
[8]; [21]
  pIC50: 5.36
[9]; [22]
  pIC50: 5.43
[10]; [23]
  pEC50: < 5.00
[11]; IC50 / EC50, HeLa
  pEC50: < 5.00
[12]; [24]
  pIC50: 5.83
[13]; [25]
  pEC50: < 5.00

## O=C1C(I)=CC(=C(c2cc(I)c(O)c(I)c2)c2ccccc2C(=O)O)C=C1I [Iodotetragnost]
[1]; [34]
  pIC50: 5.24
[2]; [36]
  pIC50: 6.51
[3]; [37]
  pIC50: 7.88
[4]; [38]
  pIC50: 7.43
[5]; [39]
  pIC50: 6.95
[6]; [40]
  pIC50: 6.42
[7]; [41]
  pEC50: < 5.00
[8]; [42]
  pIC50: 5.43
[9]; [43]
  pIC50: < 5.00
[10]; [44]
  pEC50: < 5.00
[11]; [45]
  pEC50: < 5.00
[12]; [46]
  pIC50: 7.27
[13]; Mus musculus, C2C12, read-out: Wnt Pathway
  pEC50: < 4.70

## Fc1ccc(C(OCCN2CCN(CCCc3ccccc3)CC2)c2ccc(F)cc2)cc1
[1]; [48]
  pIC50: 5.83
[2]; [49]
  pIC50: < 4.70
[3]; [50]
  pIC50: 6.04
[4]; [51]
  pIC50: 6.95
[5]; [52]
  pIC50: 5.68
[6]; [53]
  pIC50: 5.31
[7]; [54]
  pEC50: < 5.00
[8]; [55]
  pIC50: 5.74
[9]; S2 Table; module primary assay; 20 = no response at highest concentration, 20.1 = inactive in single concentration testing; read-out: Anti-Angiogenesis
  pIC50: < 5.00
[10]; [56]
  pEC50: < 5.00
[11]; [57]
  pEC50: < 5.00
[12]; [58]
  pIC50: 5.55
[13]; [59]
  pEC50: < 5.00

## O=C([O-])CN(CCN(CC(=O)[O-])CC(=O)O)CCN(CC(=O)[O-])CC(=O)O.[Gd+3] [Gadopentetic acid]
[1]; [26]
  pIC50: < 4.70
[2]; [27]
  pIC50: < 4.70
[3]; [28]
  pIC50: < 4.70
[4]; [29]
  pIC50: 5.53
[5]; [30]
  pIC50: 5.50
[6]; [31]
  pIC50: < 4.70
[7]; read-out: GLP 1 Secretion
  pEC50: < 5.00
[8]; [32]
  pIC50: < 4.70
[9]; read-out: Anti-Angiogenesis
  pIC50: < 5.00
[10]; read-out: Insulin Secretion
  pEC50: < 5.00
[11]
  pEC50: < 5.00
[12]; [33]
  pIC50: 6.05
[13]; read-out: Wnt Pathway
  pEC50: < 5.00

## CCCCCCCCCCCC[N+](C)(C)Cc1ccccc1 [dimethyldodecylbenzylammonium]
[1]; [48]
  pIC50: 6.33
[2]; [49]
  pIC50: 5.05
[3]; [50]
  pIC50: 6.13
[4]; [51]
  pIC50: 5.51
[5]; [52]
  pIC50: 5.10
[6]; [53]
  pIC50: 5.71
[7]; [54]
  pEC50: < 5.00
[8]; [55]
  pIC50: 7.70
[9]; read-out: Anti-Angiogenesis
  pIC50: < 5.00
[10]; [56]
  pEC50: < 5.00
[11]; [57]
  pEC50: < 5.00
[12]; [58]
  pIC50: < 4.70
[13]; [59]
  pEC50: < 5.00

## OC[C@H]1O[C@@H](n2cnc3c(S)ncnc32)[C@H](O)[C@@H]1O [Thioinosine]
[1]; [35]
  pIC50: 6.93
[2]; [36]
  pIC50: 5.97
[3]; [37]
  pIC50: 7.20
[4]; [38]
  pIC50: 7.84
[5]; [39]
  pIC50: 7.54
[6]; [40]
  pIC50: 7.54
[7]; [41]
  pEC50: < 5.00
[8]; [42]
  pIC50: 5.66
[9]; [43]
  pIC50: 5.85
[10]; [44]
  pEC50: < 5.00
[11]; [45]
  pEC50: < 5.00
[12]; [46]
  pIC50: 6.30
[13]; [47]
  pEC50: < 5.00
